Columns and labels:
Assay type in all cases: cell-based
DU145 cells = test: Scratch assay and transwell migration assay; settings: SRI 31215 10 μM, JNJ 38877605 1 μM; for fibroblast-induced migration: 18Co or WI38 conditioned media
Description: (§1) Cancer cells were seeded in 12-well plates and allowed to reach confluence. Following overnight serum-starvation, a scratch/wound was introduced into the cell monolayer with a sterile tip. Cells were cultured in serum-free media or were treated with recombinant HGF (10 ng/ml) or serum-free conditioned media from fibroblasts (50%) in the presence or absence of SRI 31215 or JNJ 38877605. Images of migrating cells were captured at 0, 12 and 24 hours after the treatment.
Cytoselect cell migration assay kit was purchased from Cell Biolabs, Inc and the assay was performed according to the manufacturer's instructions. Briefly, DU145 cells (75×10^3) were seeded in transwells ([…] inserts) in serum-free media and were stimulated with recombinant HGF or with conditioned media from 18Co or WI38 fibroblasts (in the absence or the presence of SRI 31215 or JNJ 38877605). Cells were incubated for 12 hours and non-migratory cells were gently removed from inside of the inserts. Inserts were stained for 10 minutes at room temperature, transferred to wells containing 200 μl of extraction buffer and incubated for 10 minutes on a shaker. The optical density (OD) was measured at 560 nm.

DiFi cells = test: Viability of DiFi cells with EGFR inhibitors and fibroblast conditioned medium; settings: gefitinib 0.5 μM or cetuximab 0.5 μg/ml, 72 hours
Description: Figure 6 Fibroblasts inhibit the proapoptotic activity of EGFRi in an HGF-dependent manner A. and B. DiFi cells were treated with gefitinib (0.5 μM) or cetuximab (0.5 μg/ml) in the absence or the presence of conditioned medium from fibroblasts and SRI 31215 and JNJ 38877605 as indicated. The viability was determined after 72 hours. In B, fibroblast conditioned medium was incubated with anti HGF or anti-IL1β antibodies. C. and D. DiFi cells were treated with gefitinib (C) or cetuximab (D) in the presence of conditioned medium from fibroblasts and inhibitors of HGF/MET signaling as indicated for 18h. Caspase activity was assessed by the Caspase-Glo 3/7 Assay from Promega.
(§2) Cell titer-glo luminescent cell viability assay kit was purchased from Promega. […] For clonogenic assay, cells were seeded in 6-well plates at a density of 400 cells per well, serum starved overnight, and treated as indicated. After colony formation (8-12 days), cells were stained with crystal violet and the number of colonies was determined using ImageQuantTL (GE Health Care Life Sciences).

RKO cells [1] = test: Clonogenic growth and viability of HGF-producing RKO cells with EGFR inhibitors; settings: SRI 31215 10 μM, JNJ 38877605 1 μM; for sensitization to gefitinib: HGF-producing RKO cells; for clonogenic growth, agent alone / clonogenic growth, combination with cetuximab: RKO cells, HAI-1 20 nM; for clonogenic growth, combination with cetuximab: cetuximab 50 μg/ml
Description: Figure 5 Inhibitors of HGF/MET signaling prevent the innate and acquired resistance to cetuximab A. and B. RKO cells were treated with cetuximab (50 μg/ml) (A) of gefitinib (B) alone, or in combination with SRI 31215 (10 μM), JNJ 38877605 (1 μM) or recombinant HAI-1 (20 nM) as indicated and clonogenic growth was monitored as described in Materials and Methods. C. and D. Caco2 cells were treated with cetuximab or gefitinib alone or in the presence of CM from fibroblasts and SRI 31215 (10 μM) or JNJ 38877605 (1 μM) as indicated. #: p<0.05, compared to control (CTRL); NS: not significant.
as §2
Supplementary Figure S3: Inhibition of HGF/MET signaling sensitizes HGF-producing RKO colon cancer cells to gefitinib. A. RKO cells (HGF+) and B. HT29 (HGF-) cells were treated with gefitinib (5 μM) in the absence or the presence of SRI 31215 (10 μM) or JNJ 38877605 (1 μM) as indicated and viability was determined 24 and 72 hours after treatment. # indicates statistical significance compared to samples treated with gefitinib alone as determined by Students’ t-test (p<0.05).
(also on this page, place not known: www.impactjournals.com/oncotarget/ Oncotarget, Materials 2016 Supplementary (HGF +) (HGF -)) […]

MET = MET activation and downstream signaling in DU145 cells (immunoblotting); settings: 30 minutes; for fibroblast-induced MET activation and signaling / MET activation induced by active HGF: serum-starved DU145 cells, SRI 31215 10 μM, JNJ 38877605 1 μM; for fibroblast-induced MET activation and signaling: 18Co conditioned media
Description: Figure 2 SRI 31215 inhibits the crosstalk between tumor cells and fibroblasts A. Inhibition of fibroblast-induced oncogenic signaling in tumor cells by SRI 31215. Serum-starved DU145 cells were treated with recombinant HGF or conditioned media from 18Co cells alone or in the presence of SRI 31215 (10 μM) or JNJ 38877605 (1 μM) for 30 minutes. The levels of pMET, pGab1, pAKT, pERK, and pSTAT3 were determined by immunoblotting. Specific bands for pMET and pGab1 are indicated by asterisks. B. Inhibition of fibroblast-induced cell scattering by SRI 31215. Scattering of DU145 cells was induced with recombinant HGF or with conditioned media from 18Co fibroblasts in the presence of SRI 31215 (10 μM) or JNJ 38877605 (1 μM) as indicated. Images were taken 24 hours after treatment.
Immunoblotting was performed using standard procedures. Membranes were blocked with 5% non-fat milk for 1 hour at RT, and incubated with primary antibodies overnight at 4°C. Primary antibodies used were anti-HGF (R&D Systems), anti-MET, anti-p-MET, anti-p-GAB1, anti-p-AKT, anti-p-ERK1/2, anti-vimentin (Cell Signaling Technology), anti-p-STAT3 (Upstate Cell Signaling Solutions), anti-E-cadherin (BD Transduction Laboratories), anti-β-actin (Sigma). Following washing with TBS-T buffer, membranes were incubated with horseradish peroxidase-conjugated secondary antibodies for 1 hour and then washed with TBS-T. Immunoblots were developed using the chemiluminescent detection system with ECL (Amersham). Protein loading was normalized by probing blots for the expression of β-actin.
Supplementary Figure S2: Dose-dependent inhibition of fibroblast induced MET activation by SRI 31215. DU145 cells were serum-starved and were treated with conditioned medium from 18Co fibroblasts for 30 minutes in the absence or the presence of increasing concentrations of SRI 31215 as indicated. The levels of pERK1/2, pAKT, pSTAT3 and β-actin were determined by […]
(also on this page, place not known: www.impactjournals.com/oncotarget/ Oncotarget, Materials 2016 Supplementary) […]

RKO cells [2] = test: Basal, constitutive migration of RKO cells; settings: data not shown
Description: as §1

| Structure (SMILES) | fibroblast-induced migration (DU145 cells) | HGF-induced migration (DU145 cells) | fibroblast-mediated resistance to gefitinib and cetuximab (viability) (DiFi cells) | sensitization to gefitinib (RKO cells [1]) | clonogenic growth, agent alone (RKO cells [1]) | clonogenic growth, combination with cetuximab (RKO cells [1]) | fibroblast-induced MET activation and signaling (MET) | MET activation induced by active HGF (MET) | basal, constitutive migration (RKO cells [2]) | fibroblast-induced ERK1/2, AKT and STAT3 activation (MET; DU145 cells, 18Co conditioned medium, increasing concentrations, dose-dependent) |
| --- | --- | --- | --- | --- | --- | --- | --- | --- | --- | --- |
| Cn1cc(-c2ccc3nnc(C(F)(F)c4ccc5ncccc5c4)n3n2)cn1 [JNJ 38877605, reference compound] | completely prevented | completely prevented | prevent | sensitized | did not impact | significant decrease | prevented | prevented | inhibit |  |
| CC1CN(CC2CCN(Cc3ccccc3)CC2)C(=O)N(c2cccc(C(=N)N)c2)C1 (stereo not shown) [SRI 31215, 3-(3-((1-benzylpiperidin-4-yl)methyl)-5-methyl-2-oxotetrahydropyrimidin-1(2H)-yl)benzimidamide] | inhibited | did not interfere | prevent | sensitized | did not impact | significant decrease | prevented | did not prevent | inhibit | inhibited |
